From patent US20110136666A1, “CHEMICAL COMPOUNDS” (SYNGENTA CROP PROTECTION, INC., priority 2008, published 2011)

Experiments:
Format in all cases: in vivo
Setaria faberi (SETFA) [1] = experiment: Pre-emergence biological efficacy, glasshouse pot test; conditions: 312 h, after 13 days, 100=total damage, 0=no damage, read-out: Percentage damage caused to weed species SETFA
Procedure: (§1) Seeds of Alopecurus myosuroides (ALOMY), Setaria faberi (SETFA), Echinochloa crus-galli (ECHCG), Solanum nigrum (SOLNI), Amaranthus retroflexus (AMARE) and Ipomea hederaceae (IPOHE) were sown in standard soil in pots. After cultivation for one day under controlled conditions in a glasshouse (at 24/16° C., day/night; 14 hours light; 65% humidity), the plants were sprayed with an aqueous spray solution derived from the formulation of the technical active ingredient in acetone/water (50:50) solution containing 0.5% Tween 20 (polyoxyethylene sorbitan monolaurate, CAS RN 9005-64-5) to give a final dose of 250 or 1000 g/ha of test compound.
(§2) The test plants were then grown under controlled conditions in the glasshouse (at 24/16° C., day/night; 14 hours light; 65% humidity) and watered twice daily. After 13 days the test was evaluated (100=total damage to plant; 0=no damage to plant).

[2] = system: Ipomea hederaceae (IPOHE); experiment: as above; conditions: Ipomoea hederacea, 312 h, after 13 days, 100=total damage, 0=no damage, read-out: Percentage damage caused to weed species IPOHE
Procedure: as §1, §2

[3] = system: Amaranthus retroflexus (AMARE); experiment: as above; conditions: 312 h, after 13 days, 100=total damage, 0=no damage, read-out: Percentage damage caused to weed species AMARE
Procedure: as §1, §2

[4] = system: Alopecurus myosuroides (ALOMY); experiment: as above; conditions: 312 h, after 13 days, 100=total damage, 0=no damage, read-out: Percentage damage caused to weed species ALOMY
Procedure: as §1, §2

[5] = system: Echinochloa crus-galli (ECHCG); experiment: as above; conditions: 312 h, after 13 days, 100=total damage, 0=no damage, read-out: Percentage damage caused to weed species ECHCG
Procedure: as §1, §2

Solanum nigrum (SOLNI) [6] = experiment: as above; conditions: 312 h, after 13 days, 100=total damage, 0=no damage, read-out: Percentage damage caused to weed species SOLNI
Procedure: as §1, §2

Setaria faberi (SETFA) [7] = experiment: Post-emergence biological efficacy, glasshouse pot test; conditions: 312 h, after 13 days, 100=total damage, 0=no damage, read-out: Percentage damage caused to weed species SETFA
Procedure: as §1, with “8 days” for “one day”
(§3) The test plants were then grown on under controlled conditions in a glasshouse (at 24/16° C., day/night; 14 hours light; 65% humidity) and watered twice daily. After 13 days the test was evaluated (100=total damage to plant; 0=no damage to plant).

[8] = system: Ipomea hederaceae (IPOHE); experiment: as above; conditions: Ipomoea hederacea, 312 h, after 13 days, 100=total damage, 0=no damage, read-out: Percentage damage caused to weed species IPONE
Procedure: as §1, with “8 days” for “one day”
as §3

[9] = system: Amaranthus retroflexus (AMARE); experiment: as above; conditions: 312 h, after 13 days, 100=total damage, 0=no damage, read-out: Percentage damage caused to weed species AMARE
Procedure: as §1, with “8 days” for “one day”
as §3

[10] = system: Alopecurus myosuroides (ALOMY); experiment: as above; conditions: 312 h, after 13 days, 100=total damage, 0=no damage, read-out: Percentage damage caused to weed species ALOMY
Procedure: as §1, with “8 days” for “one day”
as §3

[11] = system: Echinochloa crus-galli (ECHCG); experiment: as above; conditions: 312 h, after 13 days, 100=total damage, 0=no damage, read-out: Percentage damage caused to weed species ECHCG
Procedure: as §1, with “8 days” for “one day”
as §3

Solanum nigrum (SOLNI) [12] = experiment: as above; conditions: 312 h, after 13 days, 100=total damage, 0=no damage, read-out: Percentage damage caused to weed species SOLNI
Procedure: as §1, with “8 days” for “one day”
as §3

Structure (SMILES)	pest or weed control at 1000 g/ha (Setaria faberi (SETFA) [1]) [%]	pest or weed control at 1000 g/ha [2] [%]	pest or weed control at 1000 g/ha [3] [%]	pest or weed control at 1000 g/ha [4] [%]	pest or weed control at 1000 g/ha [5] [%]	pest or weed control at 1000 g/ha (Solanum nigrum (SOLNI) [6]) [%]	pest or weed control at 1000 g/ha (Setaria faberi (SETFA) [7]) [%]	pest or weed control at 1000 g/ha [8] [%]	pest or weed control at 1000 g/ha [9] [%]	pest or weed control at 1000 g/ha [10] [%]	pest or weed control at 1000 g/ha [11] [%]	pest or weed control at 1000 g/ha (Solanum nigrum (SOLNI) [12]) [%]	further results
COC(=O)c1nc(-c2cccnc2)nc(N)c1Cl [Compound 2-153, 4-Amino-5-chloro-6-methoxycarbonyl-2-pyridin-3-ylpyrimidine]	0	0	0	0	0	0	0	0	0	0	0	0	
COC(=O)c1nc(-c2cccnc2OC)nc(N)c1Cl [Compound 2-154, 4-Amino-5-chloro-6-methoxycarbonyl-2-(2-methoxypyridin-3-yl)-pyrimidine]	0	0	0	0	0	20	0	20	70	0	0	30	
COC(=O)c1nc(-c2ccc(OC)nc2)nc(N)c1Cl [Compound 2-155, 4-Amino-5-chloro-6-methoxycarbonyl-2-(2-methoxypyridin-5-yl)-pyrimidine]	0	0	20	0	0	20	80	70	100	0	80	70	
COC(=O)c1nc(-c2ccc(Cl)nc2)nc(N)c1Cl [Compound 2-156, 4-Amino-5-chloro-2-(2-chloropyridin-5-yl)-6-methoxycarbonyl pyrimidine]	0	0	70	0	0	60	40	70	100	40	30	80	
COC(=O)c1nc(-c2ccc(F)nc2)nc(N)c1Cl [Compound 2-157, 4-Amino-5-chloro-2-(2-fluoropyridin-5-yl)-6-methoxycarbonyl pyrimidine]	0	0	0	0	0	0	20	70	60	30	0	60	
COC(=O)c1nc(-c2ccc(OC)nc2OC)nc(N)c1Cl [Compound 2-159, 4-Amino-5-chloro-2-(2,6-dimethoxypyridin-3-yl)-6-methoxycarbonyl pyrimidine]	0	0	0	0	0	0	30	10	100	0	10	50	
COC(=O)c1nc(-c2ccc(C)nc2F)nc(N)c1Cl [Compound 2-161, 4-Amino-5-chloro-2-(2-fluoro-6-methylpyridin-3-yl)-6-methoxycarbonyl pyrimidine]	0	0	60	0	0	40	80	100	90	30	60	80	
COC(=O)c1nc(-c2cccnc2OCC(F)(F)F)nc(N)c1Cl [Compound 2-166, 4-Amino-5-chloro-6-methoxycarbonyl-2-(2-[2,2,2-trifluoroethoxy]-pyridin-3-yl)-pyrimidine]													pest or weed control at 250 g/ha (Setaria faberi (SETFA) [1]): 0%; pest or weed control at 250 g/ha [2]: 0%; pest or weed control at 250 g/ha [3]: 0%; pest or weed control at 250 g/ha [4]: 0%; pest or weed control at 250 g/ha [5]: 0%; pest or weed control at 250 g/ha (Solanum nigrum (SOLNI) [6]): 0%; pest or weed control at 250 g/ha (Setaria faberi (SETFA) [7]): 0%; pest or weed control at 250 g/ha [8]: 0%; pest or weed control at 250 g/ha [9]: 0%; pest or weed control at 250 g/ha [10]: 0%; pest or weed control at 250 g/ha [11]: 0%; pest or weed control at 250 g/ha (Solanum nigrum (SOLNI) [12]): 0%
COC(=O)c1nc(-c2cccnc2F)nc(N)c1Cl [Compound 2-172, 4-Amino-5-chloro-2-(2-fluoropyridin-3-yl)-6-methoxycarbonyl pyrimidine]													pest or weed control at 250 g/ha (Setaria faberi (SETFA) [1]): 0%; pest or weed control at 250 g/ha [2]: 0%; pest or weed control at 250 g/ha [3]: 0%; pest or weed control at 250 g/ha [4]: 0%; pest or weed control at 250 g/ha [5]: 0%; pest or weed control at 250 g/ha (Solanum nigrum (SOLNI) [6]): 0%; pest or weed control at 250 g/ha (Setaria faberi (SETFA) [7]): 10%; pest or weed control at 250 g/ha [8]: 10%; pest or weed control at 250 g/ha [9]: 0%; pest or weed control at 250 g/ha [10]: 10%; pest or weed control at 250 g/ha [11]: 0%; pest or weed control at 250 g/ha (Solanum nigrum (SOLNI) [12]): 60%
COC(=O)c1nc(-c2cc(Cl)nc(Cl)c2)nc(N)c1Cl [Compound 2-179, 4-Amino-5-chloro-2-(2,6-dichloropyridin-4-yl)-6-methoxycarbonyl pyrimidine]	0	0	0	0	0	0	10	40	30	0	0	30	
